Read-outs that look alike come from different tables or passages of the source.
Legend:
[1] = Cell growth inhibition, CellTiter-Glo Luminescent Cell Viability Assay; format: cell-based; details: 4 days, CellTiter-Glo
Outline: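 Cells seeded at 2,000/well with serially diluted compound and cultured 4 days at 37 °C, 5% CO2. Viability read by CellTiter-Glo luminescence; IC50 derived from dose-response.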

menin protein = menin protein (Homo sapiens (Human), UniProt O00255); assay: biochemical; format: binding; details: FP competitive binding; menin protein 4 nM, FAM-MM2 probe 2 nM; read-out: Menin Binding Affinity IC50
Outline: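 Test compounds displaced FAM-MM2 (2 nM) from 4 nM menin after 30 min equilibration at room temperature in PBS buffer containing bovine γ-globulin, 4% DMSO and Triton X-100. Binding was followed by fluorescence polarization. Competition curves were fitted by nonlinear regression to give IC50 and Ki.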

[2] = MOLM-13, 96 h, MOLM13 cells, read-out: Cell Growth Inhibition IC50 (μM) MOLM13
[3] = MV4-11, 96 h, MV4, 11 cells, read-out: Cell Growth Inhibition IC50 (μM) MV4, 11

Sequence of menin protein (O00255 whole entry): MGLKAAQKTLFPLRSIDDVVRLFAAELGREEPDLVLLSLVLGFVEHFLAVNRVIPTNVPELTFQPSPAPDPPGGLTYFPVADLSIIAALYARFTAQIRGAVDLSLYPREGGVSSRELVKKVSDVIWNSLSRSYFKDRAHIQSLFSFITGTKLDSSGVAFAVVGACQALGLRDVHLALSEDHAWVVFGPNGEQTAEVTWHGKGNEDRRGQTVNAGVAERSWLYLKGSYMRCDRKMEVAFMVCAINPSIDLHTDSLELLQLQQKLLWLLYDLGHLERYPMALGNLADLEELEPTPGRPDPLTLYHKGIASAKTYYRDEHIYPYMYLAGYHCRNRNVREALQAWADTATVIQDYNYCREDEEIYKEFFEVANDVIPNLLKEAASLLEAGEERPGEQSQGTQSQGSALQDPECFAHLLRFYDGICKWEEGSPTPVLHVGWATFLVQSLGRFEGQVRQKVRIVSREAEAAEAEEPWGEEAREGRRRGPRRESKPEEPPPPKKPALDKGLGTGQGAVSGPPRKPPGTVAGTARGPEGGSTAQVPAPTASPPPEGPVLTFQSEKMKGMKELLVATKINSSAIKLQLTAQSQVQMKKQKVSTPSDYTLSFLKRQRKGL

SMILES | IC50 [1, 2] [µM] | IC50 [1, 3] [µM] | IC50 (menin protein) [nM] | IC50 ([1]; MOLM13 cells, read-out: Cell Growth Inhibition IC50 (μM) MOLM13) [µM] | IC50 ([1]; MV4, 11 cells, read-out: Cell Growth Inhibition IC50 (μM) MV4, 11) [µM]
CN1Cc2ccccc2C(C2CCCC2)(C2CCN(CC3CN(c4ccc(S(=O)(=O)C5CC5)cc4)C3)CC2)C1 (stereo not drawn) [compound 70, 4-cyclopentyl-4-(1-((1-(4-(cyclopropylsulfonyl)phenyl)azetidin-3-yl)methyl)piperidin-4-yl)-2-methyl-1,2,3,4-tetrahydroisoquinoline] | 3.5 | 2.2 | 12 | – | –
O=S(=O)(c1ccc(N2CC(CN3CCC(C4(C5CCCC5)NCCc5ccccc54)CC3)C2)cc1)C1CCC1 (stereo not drawn) [compound 85, 1-(1-((1-(4-(cyclobutylsulfonyl)phenyl)azetidin-3-yl)methyl)piperidin-4-yl)-1-cyclopentyl-1,2,3,4-tetrahydroisoquinoline] | 4.2 | 1.6 | 36 | – | –
O=S(=O)(CC1CCC1)c1ccc(N2CC(CN3CCC(C4(C5CCCC5)NCCc5ccccc54)CC3)C2)cc1 (stereo not drawn) [compound 86, 1-(1-((1-(4-((cyclobutylmethyl)sulfonyl)phenyl)azetidin-3-yl)methyl)piperidin-4-yl)-1-cyclopentyl-1,2,3,4-tetrahydroisoquinoline] | 1.2 ± 0.5 | 0.864 ± 0.017 | 55 | – | –
O=S(=O)(CC1CCCC1)c1ccc(N2CC(CN3CCC(C4(C5CCCC5)NCCc5ccccc54)CC3)C2)cc1 (stereo not drawn) [compound 91, 1-cyclopentyl-1-(1-((1-(4-((cyclopentylmethyl)sulfonyl)phenyl)azetidin-3-yl)methyl)piperidin-4-yl)-1,2,3,4-tetrahydroisoquinoline] | 1.7 ± 0.004 | 1.3 ± 0.3 | 42 | – | –
O=S(=O)(c1ccc(N2CC(CN3CCC(C4(C5CCCC5)NCCc5ccccc54)CC3)C2)cc1)C1CCCCC1 (stereo not drawn) [compound 92, 1-(1-((1-(4-(cyclohexylsulfonyl)phenyl)azetidin-3-yl)methyl)piperidin-4-yl)-1-cyclopentyl-1,2,3,4-tetrahydroisoquinoline] | 1.6 ± 0.1 | 0.961 ± 0.384 | 19 | – | –
O=S(=O)(CC1CCCCC1)c1ccc(N2CC(CN3CCC(C4(C5CCCC5)NCCc5ccccc54)CC3)C2)cc1 (stereo not drawn) [compound 93, 1-(1-((1-(4-((cyclohexylmethyl)sulfonyl)phenyl)azetidin-3-yl)methyl)piperidin-4-yl)-1-cyclopentyl-1,2,3,4-tetrahydroisoquinoline] | 1.1 ± 0.7 | 0.779 ± 0.068 | 52 | – | –
CCN1Cc2ccccc2C(C2CCCC2)(C2CCN(CC3CN(c4ccc(S(=O)(=O)C5CC5)cc4)C3)C(C)C2)C1 (stereo not drawn) [compound 94, 4-cyclopentyl-4-(1-((1-(4-(cyclopropylsulfonyl)phenyl)azetidin-3-yl)methyl)-2-methylpiperidin-4-yl)-2-ethyl-1,2,3,4-tetrahydroisoquinoline] | 2.3 | 2 | 29 | – | –
CCN1Cc2ccccc2C(C2CCCC2)(C2CCN(CC3CN(c4ccc(S(=O)(=O)C5CC5)cc4)C3)C(C)C2)C1 (stereo not drawn) [compound 95, 4-cyclopentyl-4-(1-((1-(4-(cyclopropylsulfonyl)phenyl)azetidin-3-yl)methyl)-2-methylpiperidin-4-yl)-2-ethyl-1,2,3,4-tetrahydroisoquinoline] | – | – | 24 | 1.9 | 1.8
CCN1Cc2ccccc2C(C2CCCC2)(C2CCN(CC3CN(c4ccc(S(=O)(=O)c5ccn(C)c5)cc4)C3)CC2)C1 (stereo not drawn) [compound 101, 4-cyclopentyl-2-ethyl-4-(1-((1-(4-((1-methyl-1H-pyrrol-3-yl)sulfonyl)phenyl)azetidin-3-yl)methyl)piperidin-4-yl)-1,2,3,4-tetrahydroisoquinoline] | 0.73 | 0.3 | 10 | – | –
CCN1Cc2ccccc2C(C2CCCC2)(C2CCN(CC3CN(c4ccc(S(=O)(=O)c5cnn(C)c5)cc4)C3)CC2)C1 (stereo not drawn) [compound 102, 4-cyclopentyl-2-ethyl-4-(1-((1-(4-((1-methyl-1H-pyrazol-4-yl)sulfonyl)phenyl)azetidin-3-yl)methyl)piperidin-4-yl)-1,2,3,4-tetrahydroisoquinoline] | 0.708 | 0.267 | 11 | – | –
CCN1Cc2ccccc2C(C2CCCC2)(C2CCN(CC3CN(c4ccc(S(=O)(=O)c5cnn(CC)c5)cc4)C3)CC2)C1 (stereo not drawn) [compound 103, 4-cyclopentyl-2-ethyl-4-(1-((1-(4-((1-ethyl-1H-pyrazol-4-yl)sulfonyl)phenyl)azetidin-3-yl)methyl)piperidin-4-yl)-1,2,3,4-tetrahydroisoquinoline] | 2.26 | 0.49 | 12 | – | –
c1cnc(N2CC(CN3CCC(C4(C5CCCC5)NCCc5ccccc54)CC3)C2)nc1 (stereo not drawn) [compound 111, 1-cyclopentyl-1-(1-((1-(pyrimidin-2-yl)azetidin-3-yl)methyl)piperidin-4-yl)-1,2,3,4-tetrahydroisoquinoline] | 96.2 | 14.4 | 46200 | – | –
N#Cc1ccc(N2CCC(CN3CCC(C4(C5CCCC5)NCCc5ccccc54)CC3)C2)cc1 (stereo not drawn) [compound 113, 4-(3-((4-(1-cyclopentyl-1,2,3,4-tetrahydroisoquinolin-1-yl)piperidin-1-yl)methyl)pyrrolidin-1-yl)benzonitrile] | 2.4 | 1.6 | 67 | – | –
CNS(=O)(=O)c1ccc(N2CC(CN3CCC(C4(C5CCCC5)NCCc5c(F)cccc54)CC3)C2)cc1 (stereo not drawn) [compound 119, 4-(3-((4-(1-cyclopentyl-5-fluoro-1,2,3,4-tetrahydroisoquinolin-1-yl)piperidin-1-yl)methyl)azetidin-1-yl)-N-methylbenzenesulfonamide] | 1.3 | 1.8 | 15 | – | –
CCS(=O)(=O)c1ccc(N2CC(CN3CCC(C4(C5CCCC5)NCCc5ccccc54)CC3)C2)cc1 (stereo not drawn) [compound 133, 1-cyclopentyl-1-(1-((1-(4-(ethylsulfonyl)phenyl)azetidin-3-yl)methyl)piperidin-4-yl)-1,2,3,4-tetrahydroisoquinoline] | 2.9 ± 0.8 | 1.7 ± 1 | 30 | – | –
CC(C)S(=O)(=O)c1ccc(N2CC(CN3CCC(C4(C5CCCC5)NCCc5ccccc54)CC3)C2)cc1 (stereo not drawn) [compound 134, 1-cyclopentyl-1-(1-((1-(4-(isopropylsulfonyl)phenyl)azetidin-3-yl)methyl)piperidin-4-yl)-1,2,3,4-tetrahydroisoquinoline] | 3.8 | 1.1 | 67 | – | –
O=S(=O)(c1ccc(N2CC(CN3CCC(C4(C5CCCC5)NCCc5ccccc54)CC3)C2)cc1)C1CC1 (stereo not drawn) [compound 135, 1-cyclopentyl-1-(1-((1-(4-(cyclopropylsulfonyl)phenyl)azetidin-3-yl)methyl)piperidin-4-yl)-1,2,3,4-tetrahydroisoquinoline] | 2.1 ± 1 | 1.3 ± 0.4 | 25 | – | –
CCN1Cc2ccccc2C(C2CCCC2)(C2CCN(CC3CN(c4ccc(S(=O)(=O)CC)cc4)C3)CC2)C1 (stereo not drawn) [compound 136, 4-cyclopentyl-2-ethyl-4-(1-((1-(4-(ethylsulfonyl)phenyl)azetidin-3-yl)methyl)piperidin-4-yl)-1,2,3,4-tetrahydroisoquinoline] | 3.8 | 1.2 | 9 | – | –
CCN1Cc2ccccc2C(C2CCCC2)(C2CCN(CC3CN(c4ccc(S(=O)(=O)C5CC5)cc4)C3)CC2)C1 (stereo not drawn) [compound 137, 4-cyclopentyl-4-(1-((1-(4-(cyclopropylsulfonyl)phenyl)azetidin-3-yl)methyl)piperidin-4-yl)-2-ethyl-1,2,3,4-tetrahydroisoquinoline] | 1.9 ± 0.7 | 1 ± 0.2 | 8 | – | –
CCN1Cc2ccccc2C(C2CCCC2)(C2CCN(CC3(F)CN(c4ccc(S(=O)(=O)C5CC5)cc4)C3)CC2)C1 (stereo not drawn) [compound 141, 4-cyclopentyl-4-(1-((1-(4-(cyclopropylsulfonyl)phenyl)-3-fluoroazetidin-3-yl)methyl)piperidin-4-yl)-2-ethyl-1,2,3,4-tetrahy36droisoquinoline] | 54.7 | 4.7 | 28 | – | –
CCN1Cc2ccccc2C(C2CCCC2)(C2CCN(CC3CN(c4ccc(S(=O)(=O)C5CCCC5)cc4)C3)CC2)C1 (stereo not drawn) [compound 142, 4-cyclopentyl-4-(1-((1-(4-(cyclopentylsulfonyl)phenyl)azetidin-3-yl)methyl)piperidin-4-yl)-2-ethyl-1,2,3,4-tetrahydroisoquinoline] | 3.2 ± 0.3 | 0.979 ± 0.335 | 8 | – | –
CCN1Cc2ccccc2C(C2CCCC2)(C2CCN(CC3CN(c4ccc(S(=O)(=O)CC5CC5)cc4)C3)CC2)C1 (stereo not drawn) [compound 143, 4-cyclopentyl-4-(1-((1-(4-((cyclopropylmethyl)sulfonyl)phenyl)azetidin-3-yl)methyl)piperidin-4-yl)-2-ethyl-1,2,3,4-tetrahydroisoquinoline] | 3.4 ± 0.5 | 1.2 ± 1 | 28 | – | –
CCN1Cc2ccccc2C(C2CCCC2)(C2CCN(CC3CN(c4ccc(S(=O)(=O)C5CC5)cc4Cl)C3)CC2)C1 (stereo not drawn) [compound 144, 4-(1-((1-(2-chloro-4-(cyclopropylsulfonyl)phenyl)azetidin-3-yl)methyl)piperidin-4-yl)-4-cyclopentyl-2-ethyl-1,2,3,4-tetrahydroisoquinoline] | 4 ± 0.7 | 1.6 ± 1.1 | 23 | – | –
